From patent US10471046B2, “Method for treating, preventing, or reducing the risk of skin infection” (Melinta Subsidiary Corp., priority 2014, dated 2019)
In brackets after ≈: the same amount, converted by molar mass.

Columns and labels:
[1] = Radezolid levels in granuloma pouch and plasma; assay type: in vivo; conditions: FIGS. 3-4
P. acnes = assay: Agar dilution MIC (CLSI reference method); assay type: cell-based; conditions: for MIC: Cutibacterium acnes
P. granulosum = assay: Agar dilution MIC (CLSI reference method); assay type: cell-based

SMILES: CC(=O)NC[C@H]1CN(c2ccc(-c3ccc(CNCc4cnn[nH]4)cc3)c(F)c2)C(=O)O1 [Radezolid, (5S)—N-[3-(2-Fluoro-4′-{[(1H-[1,2,3]triazol-4-ylmethyl)-amino]-methyl}-biphenyl-4-yl)-2-oxo-oxazolidin-5-ylmethyl]-acetamide]
- levels in granuloma pouch versus plasma over time [1]: remain high in granuloma pouch even as they decline in the plasma
- MIC (P. acnes; ATCC11827, P. acnes ATCC 11827): 0.125 µg/mL (≈ 0.285 µM)
- MIC (P. acnes; ATCC11828, P. acnes ATCC 11828): 0.125 µg/mL (≈ 0.285 µM)
- MIC (P. acnes; ATCC29399, P. acnes ATCC 29399): 0.125 µg/mL (≈ 0.285 µM)
- agar dilution MIC, fold more potent than linezolid (P. acnes; P. acnes): 4 fold
- agar dilution MIC, fold more potent than linezolid (P. granulosum; P. granulosum): 8 fold
- MIC (P. granulosum; P. granulosum ATCC 25746): 0.25 µg/mL (≈ 0.57 µM)
